Here are results for two compounds from PMC10041525, “New Dual Inhibitors of Bacterial Topoisomerases with Broad-Spectrum Antibacterial Activity and In Vivo Efficacy against Vancomycin-Intermediate Staphylococcus aureus” (Journal of Medicinal Chemistry, 2023).

As a reminder, the viability is a read-out of living cells in per cent, often relative to untreated cells. For orientation: IC50 means the point on the concentration scale where inhibition reaches its midpoint. A low value points to greater potency in that assay. The term MIC denotes the least concentration at which growth counts as inhibited. High values mean a less susceptible organism, low ones a more susceptible organism. In general, solubility refers to how much of the substance goes into solution per volume.

A short description of data set [1]: mitochondrial toxicity glu/gal assay. In kind it is cell-based. The settings on record: human, read-out: cell viability (ATP), % of control. As to the method: (§1) HepG2 cells were seeded in two 96-well plates at a density of 50,000 cells per well in 100 μL of growth medium. For the first plate, the growth medium contained glucose and for the second plate, it contained galactose. Cells were incubated overnight in a 5% CO2 atmosphere at 37 °C and allowed to attach onto the wells. […] The medium contained positive control (Rotenone). […] Luminescence was measured with Tecan Infinite 200 pro luminometer, and the values from each well treated with compound were compared to the values given by the negative control (medium only). The inhibition of mitochondrial function was determined by comparing ATP levels in galactose and glucose exposed cells. […]

For another data set, the system named is HepG2 cells. The data set can be described thus: mitochondrial toxicity glu/gal assay. In kind it is cell-based. The settings on record: human. As to the method:
as §1

Data set [2] has as its system S. aureus ATCC 700699 (VISA). In kind it is in vivo, female CD-1 mice. Particulars: for Change in log10CFU/gr of thigh from 2 hour control / Change in log10CFU/gr of thigh from 26 hours control / Average log10CFU/gr of thigh: IV; for Average log10CFU/gr of thigh: 26 h. The protocol:
The neutropenic mouse thigh infection model study was performed by NeoSome Life Sciences, LLC (Lexington, MA, USA) according to NeoSome Institutional Animal Care and Use Committee (IACUC) policies and guidelines as well as NIH’s Office of Laboratory Animal Welfare (OLAW) standards.
Neutropenic mouse thigh infection experiments were performed on female CD-1 mice (Charles River Laboratories, USA). To induce neutropenia, mice received two doses of cyclophosphamide on days −4 and −1 with 150 and 100 mg/kg delivered intraperitoneally (IP), respectively. The inoculum of the testing strain, S. aureus ATCC 700699-P1 (VISA), was prepared from overnight agar plate cultures. To prepare bacterial inoculums, a portion of the plate was resuspended in sterile saline and adjusted to an OD of 0.12 at 625 nm. Next, the resulted bacterial suspension was further diluted to reach an infecting inoculum of 6.0 × 10^5 cfu per each mouse. Plate counts of the inoculum were also performed in each case to confirm the inoculum concentration, and the actual inoculum size was 7.25 × 10^5 cfu/mouse. Mice were inoculated with 100 μL of the prepared bacterial suspension via an intramuscular injection into the right rear thigh. […] The test agent was then dosed via IV administration, to ensure optimal distribution, at 2, 10, and 18 h post-infection. Beginning at 2 h, post-infection mice were dosed with either test article or positive control antibiotic. Mice receiving test agents were dosed intravenously at 10 mL/kg. Linezolid was delivered as a SC dose to ensure optimized exposure, distribution, and efficacy. Four animals were dosed per group. One group of four mice was euthanized at the initiation of therapy (t = 2 h) and cfus determined. All remaining mice were euthanized at 26 h post-infection. At termination, thighs were aseptically excised, weighed, and homogenized to a uniform consistency in 2 mL of sterile saline. The homogenate was serially diluted and plated on bacterial growth media. The cfus were enumerated after overnight incubation.

A further data set addresses S. aureus DNA gyrase (Staphylococcus aureus, UniProt P0A0K8). The data set can be described thus: gel-based supercoiling assay.
For another data set, the target named is T1, hERG channel (Homo sapiens, UniProt Q12809).
T1 construct: expressed in transfected cells; host or cells: HEK293 cells stably expressing the channel
Kind of data set: whole-cell patch-clamp on HEK293 cells. In kind it is cell-based. Particulars: 50 µM 7a, mean ± SD. The source says:
hERG inhibition was additionally determined in whole-cell patch-clamp experiments on HEK293 cells stably expressing the channel, as previously described.[55]
For orientation: In patch-clamp work, channel activity is measured electrically.

Data set [3] in a line: thermodynamic solubility in phosphate buffer, LC-MS/MS. The settings on record: 100 mM phosphate buffer pH 7.4, 24 h, 37 °C.
Protocol: 0.5 mL of 67 mM phosphate
in a rotational shaker (400 rpm) at 23 °C. After the incubation an aliquot of 200 µL was
1 µL of the supernatant was transferred to 96-well plate in triplicate wells, diluted 100×
with acetonitrile/H2O (60/40) containing 50 nM warfarin as internal standard and analyzed
performed comparing to a separately constructed standard series (10 nM to 1000 nM).
shaker (900 rpm) at 37 °C. After the incubation an aliquot of 200 µL was transferred to a
conical glass insert and centrifuged for 30 min at 10 000 × g at 37 °C. The supernatant was
transferred to a new HPLC vial appropriately diluted (100×, 1000×, 5000×) with
acetonitrile/H2O (50/50) containing 50 nM warfarin as internal standard and analyzed by
performed comparing to a separately constructed standard curve between 3 nM to 20000
The next data set deals with T2, P. aeruginosa DNA gyrase (Pseudomonas aeruginosa, UniProt Q9I7C2).
T2 construct: purchased Inspiralis
The data set can be described thus: supercoiling HTS assay. In kind it is biochemical. As to the method: The assay to determine IC50 values was performed using assay kits from Inspiralis in accordance with previously described procedures.[43] Seven concentrations of the inhibitors were used to determine IC50 values which were then calculated with GraphPad Prism 6.0 software. Three independent measurements were performed to determine IC50 values, and mean values are reported as the final result.

Data set [4] has as its system P. aeruginosa PAO1, PAO750. The data set can be described thus: MIC, wild-type vs efflux-defective. In kind it is cell-based. The settings on record: Pseudomonas aeruginosa.
The subject of data set [5] is E. coli ATCC 25922, CH3130 ΔtolC, CGSC 5163 D22. The data set can be described thus: MIC, wild-type vs efflux-defective and lps mutant. In kind it is cell-based. Particulars: Escherichia coli.
A short description of data set [6]: formulation solubility study. In kind it is physicochemical. As to the method: For the actual in vivo assay, a […] pH was used, and the compound was prepared in a formulation of 100 mM carbonate buffer at pH 8.4 with 20% hydroxypropyl β-cyclodextrin.
Solubility analysis was performed on an Acquity UPLC instrument (Waters, Milford, MA, USA). A Waters BEH C18 column (2.1 × 50 mm, 1.7 μm; Waters) was used at T = 40 °C, with the flow rate of 0.5 mL/min; PDA UV detection at λ = 256 nm; mobile phase A: 0.1% formic acid in ultrapure water; mobile phase B: 0.1% formic acid in acetonitrile. Gradient: 0–4 min, 5–100% B; 4–5 min, 100% B; 5–5.1 min, 100–5% B; 5.1–7 min, 5% B.

Another data set relates to H. influenzae ATCC 49766. Also noted: method as in earlier work. The settings on record: QC range for H. influenzae ATCC 49766, ref CLSI; cited from earlier work.

Values after ≈ are worked out from the molar mass of the structure shown. Values joined by “and” are separate entries in the source; they are usually repeats but may differ in a detail not shown here. Identical values can stand only once. Like-named read-outs stand apart in the source and are kept apart here.

T1 sequence (Q12809 whole entry): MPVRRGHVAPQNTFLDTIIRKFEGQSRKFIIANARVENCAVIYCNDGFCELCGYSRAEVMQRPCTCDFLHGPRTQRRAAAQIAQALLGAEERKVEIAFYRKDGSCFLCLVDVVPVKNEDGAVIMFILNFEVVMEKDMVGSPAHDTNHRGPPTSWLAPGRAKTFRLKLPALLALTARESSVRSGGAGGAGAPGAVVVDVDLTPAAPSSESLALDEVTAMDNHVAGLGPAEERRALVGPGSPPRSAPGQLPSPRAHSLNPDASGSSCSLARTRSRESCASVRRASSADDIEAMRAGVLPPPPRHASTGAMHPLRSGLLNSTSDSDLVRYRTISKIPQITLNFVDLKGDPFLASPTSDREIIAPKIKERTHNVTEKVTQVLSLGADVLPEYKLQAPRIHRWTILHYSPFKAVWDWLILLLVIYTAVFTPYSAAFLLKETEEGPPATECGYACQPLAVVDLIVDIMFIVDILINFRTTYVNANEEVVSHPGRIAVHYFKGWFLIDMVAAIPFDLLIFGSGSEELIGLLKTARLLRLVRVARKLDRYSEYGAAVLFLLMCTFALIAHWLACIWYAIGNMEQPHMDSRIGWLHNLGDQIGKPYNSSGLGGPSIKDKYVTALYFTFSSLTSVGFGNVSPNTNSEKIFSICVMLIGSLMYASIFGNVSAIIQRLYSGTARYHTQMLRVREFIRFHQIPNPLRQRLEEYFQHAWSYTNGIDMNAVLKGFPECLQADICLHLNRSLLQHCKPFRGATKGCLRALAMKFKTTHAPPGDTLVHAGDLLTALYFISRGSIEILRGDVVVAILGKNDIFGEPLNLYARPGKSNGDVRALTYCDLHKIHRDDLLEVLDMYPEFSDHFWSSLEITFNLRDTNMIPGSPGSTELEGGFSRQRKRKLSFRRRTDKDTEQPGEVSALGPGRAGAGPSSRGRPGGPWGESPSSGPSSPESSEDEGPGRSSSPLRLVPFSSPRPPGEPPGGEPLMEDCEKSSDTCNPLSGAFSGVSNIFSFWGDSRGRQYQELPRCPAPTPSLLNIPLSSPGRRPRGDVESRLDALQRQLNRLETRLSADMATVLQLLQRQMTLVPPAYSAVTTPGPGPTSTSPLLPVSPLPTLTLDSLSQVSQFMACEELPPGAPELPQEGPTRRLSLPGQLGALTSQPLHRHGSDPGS
T2 sequence (Q9I7C2 whole entry): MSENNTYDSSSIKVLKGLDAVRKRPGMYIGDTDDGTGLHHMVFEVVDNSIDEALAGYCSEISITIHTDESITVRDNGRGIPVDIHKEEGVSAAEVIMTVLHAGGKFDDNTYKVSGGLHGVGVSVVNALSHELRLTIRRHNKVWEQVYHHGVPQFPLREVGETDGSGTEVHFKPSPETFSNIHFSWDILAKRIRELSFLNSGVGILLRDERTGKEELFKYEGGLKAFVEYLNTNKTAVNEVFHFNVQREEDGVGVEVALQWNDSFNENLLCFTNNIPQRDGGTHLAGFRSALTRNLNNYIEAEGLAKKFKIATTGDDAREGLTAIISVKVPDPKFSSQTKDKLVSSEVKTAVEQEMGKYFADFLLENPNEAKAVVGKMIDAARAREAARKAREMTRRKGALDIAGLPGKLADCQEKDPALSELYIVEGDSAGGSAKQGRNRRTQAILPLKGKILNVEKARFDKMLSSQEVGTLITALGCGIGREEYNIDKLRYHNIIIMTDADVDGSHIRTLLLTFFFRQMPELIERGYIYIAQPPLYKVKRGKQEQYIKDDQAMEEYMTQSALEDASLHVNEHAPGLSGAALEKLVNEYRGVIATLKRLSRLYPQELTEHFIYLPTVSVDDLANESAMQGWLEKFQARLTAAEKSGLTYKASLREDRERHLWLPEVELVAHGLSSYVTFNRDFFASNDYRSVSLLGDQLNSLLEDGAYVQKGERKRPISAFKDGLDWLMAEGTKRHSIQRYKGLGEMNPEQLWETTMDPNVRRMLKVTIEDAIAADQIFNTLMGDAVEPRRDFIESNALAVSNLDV
T2 sequence (P48372 whole entry, further chain): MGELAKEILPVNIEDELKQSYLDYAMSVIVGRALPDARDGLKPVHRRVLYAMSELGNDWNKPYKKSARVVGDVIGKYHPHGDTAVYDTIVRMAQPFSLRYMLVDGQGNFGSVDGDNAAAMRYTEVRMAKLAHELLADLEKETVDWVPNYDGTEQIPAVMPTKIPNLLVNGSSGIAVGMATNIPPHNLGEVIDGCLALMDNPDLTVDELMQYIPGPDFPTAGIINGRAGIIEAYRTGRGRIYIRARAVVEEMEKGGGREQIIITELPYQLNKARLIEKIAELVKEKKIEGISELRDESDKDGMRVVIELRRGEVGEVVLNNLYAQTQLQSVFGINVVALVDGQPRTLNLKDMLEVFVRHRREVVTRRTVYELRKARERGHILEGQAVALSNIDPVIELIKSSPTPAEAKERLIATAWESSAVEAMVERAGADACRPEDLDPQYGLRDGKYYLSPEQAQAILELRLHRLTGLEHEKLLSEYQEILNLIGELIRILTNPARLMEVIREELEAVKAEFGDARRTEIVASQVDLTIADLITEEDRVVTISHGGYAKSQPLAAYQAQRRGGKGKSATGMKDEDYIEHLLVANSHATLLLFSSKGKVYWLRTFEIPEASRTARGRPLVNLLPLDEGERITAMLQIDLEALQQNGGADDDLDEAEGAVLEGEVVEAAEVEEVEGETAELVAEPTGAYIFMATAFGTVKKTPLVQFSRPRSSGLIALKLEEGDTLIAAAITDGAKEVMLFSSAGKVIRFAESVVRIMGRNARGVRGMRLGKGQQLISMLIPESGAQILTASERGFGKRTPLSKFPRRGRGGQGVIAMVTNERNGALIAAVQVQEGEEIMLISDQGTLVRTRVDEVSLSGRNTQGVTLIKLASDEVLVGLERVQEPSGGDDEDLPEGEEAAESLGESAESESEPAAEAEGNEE
S. aureus DNA gyrase, sequence (P0A0K8 whole entry): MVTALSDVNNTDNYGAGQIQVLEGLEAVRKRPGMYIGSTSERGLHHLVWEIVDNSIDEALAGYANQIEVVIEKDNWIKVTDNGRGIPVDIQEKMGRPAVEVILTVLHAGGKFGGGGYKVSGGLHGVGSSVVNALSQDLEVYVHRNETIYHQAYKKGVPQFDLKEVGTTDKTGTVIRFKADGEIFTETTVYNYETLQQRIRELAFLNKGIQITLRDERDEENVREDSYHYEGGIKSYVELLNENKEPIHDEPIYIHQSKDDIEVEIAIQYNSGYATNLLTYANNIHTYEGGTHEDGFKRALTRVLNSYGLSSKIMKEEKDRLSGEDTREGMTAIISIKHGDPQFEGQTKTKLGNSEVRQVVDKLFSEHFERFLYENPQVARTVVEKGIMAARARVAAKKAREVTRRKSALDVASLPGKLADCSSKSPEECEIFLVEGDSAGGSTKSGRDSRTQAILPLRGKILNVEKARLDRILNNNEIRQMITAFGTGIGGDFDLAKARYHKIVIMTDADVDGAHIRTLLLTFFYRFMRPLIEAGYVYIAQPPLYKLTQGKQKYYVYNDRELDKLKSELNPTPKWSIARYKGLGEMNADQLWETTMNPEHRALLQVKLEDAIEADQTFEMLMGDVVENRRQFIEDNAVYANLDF
S. aureus DNA gyrase, sequence (P20831 whole entry, further chain): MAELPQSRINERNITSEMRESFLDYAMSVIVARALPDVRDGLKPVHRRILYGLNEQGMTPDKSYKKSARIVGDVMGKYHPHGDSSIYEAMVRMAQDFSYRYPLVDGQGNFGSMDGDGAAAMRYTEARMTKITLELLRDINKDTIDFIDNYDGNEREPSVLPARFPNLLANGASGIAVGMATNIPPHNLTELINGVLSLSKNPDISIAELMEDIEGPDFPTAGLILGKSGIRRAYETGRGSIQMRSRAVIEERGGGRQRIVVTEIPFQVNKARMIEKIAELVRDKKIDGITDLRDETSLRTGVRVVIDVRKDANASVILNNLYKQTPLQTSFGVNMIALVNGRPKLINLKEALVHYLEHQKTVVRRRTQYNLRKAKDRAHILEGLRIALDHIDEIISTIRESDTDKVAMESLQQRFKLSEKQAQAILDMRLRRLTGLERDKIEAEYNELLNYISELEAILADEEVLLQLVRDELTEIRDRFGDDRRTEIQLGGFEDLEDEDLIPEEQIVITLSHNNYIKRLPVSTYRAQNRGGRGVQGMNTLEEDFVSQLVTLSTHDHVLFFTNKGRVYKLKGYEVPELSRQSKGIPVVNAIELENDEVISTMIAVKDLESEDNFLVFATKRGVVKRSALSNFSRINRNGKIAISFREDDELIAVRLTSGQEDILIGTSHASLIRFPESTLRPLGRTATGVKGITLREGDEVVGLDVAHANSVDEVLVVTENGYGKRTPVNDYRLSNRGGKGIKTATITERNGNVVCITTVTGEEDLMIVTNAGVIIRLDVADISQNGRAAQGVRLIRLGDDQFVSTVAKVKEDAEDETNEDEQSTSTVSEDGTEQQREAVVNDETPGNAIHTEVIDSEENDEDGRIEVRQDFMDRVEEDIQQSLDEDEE
Protocol for S. aureus DNA gyrase: In all experiments, the activity of the
enzymes was determined prior to the testing of the compound and 1 unit (U) was defined as the
amount of enzyme required to just fully supercoil or decatenate the substrate. This amount of
enzyme was initially used in determination of control inhibitor activity. These experiments were
performed in duplicate. […] The final DMSO
concentration was 1% for all assays. All measurements were performed in quadruplicates. The
condition for each reaction were as follows:
− S. aureus gyrase supercoiling assay
1 U of S. aureus gyrase was incubated with 0.5 µg of relaxed pBR322 DNA in a 30 µL reaction at
magnesium acetate, 10 mM DTT, 2 mM ATP, 500 mM potassium glutamate and 0.05 mg/mL
− S. aureus topo IV decatenation assay
1 U of S. aureus topo IV was incubated with 20 µg kDNA in a 30 µL reaction at 37 °C for 30
mM ATP, 350 mM potassium glutamate and 0.05 mg/mL albumin.
− A. baumannii gyrase supercoiling assay
1 U of A. baumannii gyrase was incubated with 0.5 µg of relaxed pBR322 DNA in a 30 µL reaction
blue), before being loaded on a 1.0% TAE gel run at 80V for 2 hours. Bands were visualised by
ethidium bromide staining for 20 minutes and destaining for 20 minutes. Gels were scanned using
documentation equipment (GeneGenius, Syngene, Cambridge, UK) and % inhibition levels were
measured by determining the relative fluorescence of the supercoiled band using gel scanning
software. […]

Take `Cc1[nH]c(C(=O)Nc2nc3c(N4CCOCC4)cc(C(=O)O)cc3s2)c(Cl)c1Cl` [7a, 2-(3,4-Dichloro-5-methyl-1H-pyrrole-2-carboxamido)-4-morpholinobenzo[d]thiazole-6-carboxylic Acid]: the values for the viability at 10 µM in [1] (galactose) and in data set [1] (glucose) were 98% and 109%, respectively. Further, the viability at 50 µM in data set [1] (galactose) was 98%; in data set [1] (glucose), 107%. Also, the viability at 100 µM in [1] (galactose) worked out at 97%; in [1] (glucose), 105%. The viability at 300 µM came to 98% in data set [1] (galactose) and 99% in data set [1] (glucose). The viability at 600 µM came out at 94% in data set [1] (galactose) and 95% in [1] (glucose). Also, the viability at 1000 µM in [1] (galactose) amounted to 83%; in data set [1] (glucose) it was 79%. For the same compound, the “mitotoxic concentration (not mitotoxic up to)” value in the data set on HepG2 cells was above 1000 µM. The “CFU/ g of thigh, single animals” value was 1.82E+08 and 2.23E+08 and 2.51E+08 and 1.42E+08 in [2] (10 mg/kg); 4.64E+05 and 4.16E+06 and 1.83E+07 and 9.23E+06 in data set [2] (25 mg/kg); 1.72E+05 and 1.68E+05 and 8.81E+05 and 8.82E+04 in data set [2] (50 mg/kg). Further, the “log CFU, single animals” value in [2] (10 mg/kg) is 8.26 and 8.35 and 8.40 and 8.15; in data set [2] (25 mg/kg), 5.67 and 6.62 and 7.26 and 6.97; in data set [2] (50 mg/kg) it was 5.24 and 5.23 and 5.95 and 4.95. In addition, the results for the “Change in log10CFU/gr of thigh from 2 hour control” value in data set [2] (10 mg/kg TID), in data set [2] (25 mg/kg TID) and in data set [2] (50 mg/kg TID) were 2.00, 0.33 and -0.96, respectively. Also, the figures for the “Change in log10CFU/gr of thigh from 26 hours control” value in data set [2] (10 mg/kg TID), in data set [2] (25 mg/kg TID) and in data set [2] (50 mg/kg TID) were 0.19, -1.47 and -2.76, respectively. Besides, the “Average log10CFU/gr of thigh” value in data set [2] (10 mg/kg TID) was 8.29; in [2] (25 mg/kg TID), 6.63; in [2] (50 mg/kg TID), 5.34. For the same compound, the entries for the “reduction compared to 26 h controls” value in data set [2] (25 mg/kg IV) and in [2] (50 mg/kg IV) were 1.47 log10 cfu and 2.76 log10 cfu, respectively. For the same compound, the “reduction compared to 2 hour infection controls” value in data set [2] (50 mg/kg IV (TID)) is 0.96 log10 cfu. Also, the results for the IC50 at S. aureus DNA gyrase and against P. aeruginosa DNA gyrase were 1.22 ± 0.04 nM and below 10 nM, respectively. In addition, the “hERG inhibition (current reduction)” value on hERG channel is 0 ± 12%. The “thermodynamic solubility, second method” value in [3] was found to be 167.9 µM (≈ 76.4 µg/mL). Besides, the MIC in [4] (PAO1, P. aeruginosa PAO1) is above 64 µg/mL; in data set [4] (PAO1, P. aeruginosa PAO750, efflux-defective), 0.25 µg/mL (≈ 0.549 µM); in data set [5] (ATCC25922, E. coli ATCC 25922) it was 8 µg/mL (≈ 17.6 µM); in [5] (ATCC25922, E. coli CGSC 5163 D22, lps mutant, hypersensitive), 2 µg/mL (≈ 4.39 µM); in data set [5] (ATCC25922, E. coli CH3130 ΔtolC, efflux-defective), below 0.125 µg/mL. Moreover, the solubility was 3800 µg/mL (≈ 8350 µM) in [6] (100 mM carbonate buffer with 20% CD, pH 8.0, 20% CD) and 13200 µg/mL (≈ 29000 µM) in data set [6] (100 mM carbonate buffer, pH 9.0, 20% hydroxypropyl β-cyclodextrin).

As to `C[C@@H](O)[C@H]1C(=O)N2C(C(=O)O)=C(SCCNC=N)C[C@H]12` [Imipenem, imipenem], the “MIC, CLSI Range” value in the data set on H. influenzae ATCC 49766 is on record as 0,25 - 1 µg/mL.
